The results in this text go back to ChEMBL document CHEMBL3856233, “Identification of (R)-(2-Chloro-3-(trifluoromethyl)phenyl)(1-(5-fluoropyridin-2-yl)-4-methyl-6,7-dihydro-1H-imidazo[4,5-c]pyridin-5(4H)-yl)methanone (JNJ 54166060), a Small Molecule Antagonist of the P2X7 receptor” (J Med Chem, 2016).

The term ED50 denotes the dose that gives a 50% effect, or the effect in half of the subjects. What is called inhibition is how much of the control response was suppressed. In general, Tmax refers to the time from dosing to the highest level. Broadly, the Cmax is the maximum level reached in the sampled fluid or tissue. The bioavailability is dose-corrected exposure relative to a reference, in per cent. In general, EC50 refers to the concentration giving half of the maximal effect. As a reminder, the half-life is the time in which the quantity being followed falls by half.

The test system of data set [1] is Rattus norvegicus. Description: Toxicity in rat assessed as CNS side effects up to 250 mg/kg, po for 4 days followed by necropsy on day 5 post treatment. To be noted: in vivo, 96 h. Format: organism-based.
Data set [2] deals with Rattus norvegicus. Description: Ex vivo receptor occupancy at P2X7 receptor in po dosed rat brain hippocampal section assessed as displacement of [3H]-(S)-7-(2-chloro-3-(trifluoromethyl)benzyl)-6-methyl-3-(pyrazin-2-yl)-6,7-dihydro-[1,2,4]triazolo[4,3-a]pyrazin-8(5H)-one after 30 mins. It counts as functional. Background: Displacement assays read how much labelled ligand stays bound in the presence of the test substance.

Data set [3] in a line: Tmax in rat at 1000 mg/kg, po. Format: ADME, organism-based. To be noted: in vivo.
Data set [4] is described as follows: Cmax in cynomolgus monkey at 5 mg/kg, po after 0.033 to 24 hrs by LC/MS/MS analysis. It counts as ADME, organism-based, Macaca fascicularis. Also on record: dose 5 mg/kg, route oral. As to conditions: in vivo.
Data set [5] concerns the target T1, CYP3A4 (Homo sapiens, UniProt P08684). Description: Inhibition of CYP3A4 in human liver microsomes using midazolam as substrate assessed as reduction in 1-OH-midazolam formation at 0.313 uM by LC/MS/MS analysis. Format: ADME. As to conditions: probe midazolam.
For data set [6], the target named is T1, CYP3A4. Description: Inhibition of CYP3A4 in human liver microsomes using midazolam as substrate assessed as reduction in 4-OH-midazolam formation at 0.313 uM by LC/MS/MS analysis. It counts as ADME. To be noted: probe midazolam. (In general: Liver microsomes are vesicles of endoplasmic reticulum, rich in cytochrome P450 enzymes.)
A short description of data set [7]: Oral bioavailability in cynomolgus monkey at 5 mg/kg after 0.033 to 24 hrs by LC/MS/MS analysis. To be noted: in vivo. Format: ADME, organism-based, Macaca fascicularis.
Data set [8] concerns Rattus norvegicus. Description: Ex vivo receptor occupancy at P2X7 receptor in po dosed rat brain hippocampal tissue assessed as brain concentration required for [3H]-(S)-7-(2-chloro-3-(trifluoromethyl)benzyl)-6-methyl-3-(pyrazin-2-yl)-6,7-dihydro-[1,2,4]triazolo[4,3-a]pyrazin-8(5H)-one displacement after 30 mins. It counts as functional, organism-based.
Data set [9] in a line: Drug metabolism in human liver microsomes assessed as oxidation of fluoropyridine substituent at 10 uM after 60 mins by LC/MS/MS analysis. As to conditions: 1 h. Format: ADME.
Data set [10] in a line: Half life in cynomolgus monkey at 1 mg/kg, iv by LC/MS/MS analysis. It counts as ADME, organism-based, Macaca fascicularis. As to conditions: in vivo.
Data set [11] can be described thus: Tmax in Beagle dog at 5 mg/kg, po after 0.033 to 24 hrs by LC/MS/MS analysis. Format: ADME, organism-based, Canis lupus familiaris. As to conditions: in vivo.
Data set [12] deals with Rattus norvegicus. Description: Toxicity in rat assessed as CNS side effects up to 1000 mg/kg, po administered on day 1 followed by necropsy on day 2. It counts as organism-based. As to conditions: in vivo.
A short description of data set [13]: Oral bioavailability in Sprague-Dawley rat at 5 mg/kg after 0.033 to 24 hrs by LC/MS/MS analysis. As to conditions: in vivo. Format: ADME, organism-based.
The target of data set [14] is T1, CYP3A4. Description: Inhibition of CYP3A4 in human liver microsomes using midazolam as substrate assessed as reduction in 1-OH-midazolam formation at 0.625 uM by LC/MS/MS analysis. Format: ADME. As to conditions: probe midazolam.

In brackets after ≈: the same amount, converted by molar mass.

T1 sequence (P08684 whole entry): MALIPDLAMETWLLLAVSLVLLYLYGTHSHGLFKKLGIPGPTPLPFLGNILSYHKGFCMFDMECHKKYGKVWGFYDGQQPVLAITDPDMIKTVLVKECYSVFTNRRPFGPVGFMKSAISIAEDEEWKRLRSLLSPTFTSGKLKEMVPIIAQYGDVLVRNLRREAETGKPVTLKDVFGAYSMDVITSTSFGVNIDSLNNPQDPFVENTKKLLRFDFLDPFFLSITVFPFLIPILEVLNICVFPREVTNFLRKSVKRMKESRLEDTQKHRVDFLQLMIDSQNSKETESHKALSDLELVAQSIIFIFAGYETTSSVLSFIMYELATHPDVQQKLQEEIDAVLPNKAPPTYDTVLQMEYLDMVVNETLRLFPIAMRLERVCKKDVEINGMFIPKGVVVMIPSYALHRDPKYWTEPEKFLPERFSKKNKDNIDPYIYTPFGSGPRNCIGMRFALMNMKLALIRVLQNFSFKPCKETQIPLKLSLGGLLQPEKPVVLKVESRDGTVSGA

Regarding `C[C@@H]1c2ncn(-c3ccc(F)cn3)c2CCN1C(=O)c1cccc(C(F)(F)F)c1Cl`, the Activity result in [1] and in data set [12] was “Non-Toxic” in each case. Further, the ED50 in [2] is 2.3 mg/kg. Moreover, the inhibition result in data set [2] is “Dose-dependent effect”. For the same molecule, the Tmax in data set [3] is 24 h; in [11], 0.5 h. In [4], the Cmax was determined as 389 ng/mL. The inhibition at 0.313 µM is 20% in data set [5] and 0.1% in data set [6]. Besides, the bioavailability came out at 54% in [7] and 55% in data set [13]. The fIC50 in data set [8] is 12 nM. The EC50 in [8] (Rattus norvegicus, P2X7) amounted to 0.362 µg/mL (≈ 0.825 µM). In data set [9], the Drug metabolism result was “Metabolite_Notdetected”. Besides, the half-life in [10] was 4.2 h. Besides, the inhibition at 0.625 µM in [14] was 29%.
